Measured values as given in patent US20040029823A1, “Antisense oligonucleotide compositions and methods for the modulation of JNK proteins” (priority 1997, published 2004).
e = 2'-O-(2-methoxyethyl) (MOE); d = 2'-deoxy (DNA)

Tested on: JNK3 mRNA
Assay: Northern assay of JNK3 mRNA levels in SH-SY5Y cells
Assay type: cell-based, human
Settings: 200 nM oligonucleotide
Procedure: Northern Assays: The mRNA expression of each JNK protein was determined by using a nucleic acid probe specifically hybridizable thereto. Nucleic acid probes specific for JNK1, JNK2 and JNK3 are described in Examples 3, 4 and 5, respectively. The probes were radiolabelled by means well known in the art (see, e.g., Short Protocols in Molecular Biology, 2nd Ed., Ausubel et al., Eds., John Wiley & Sons, New York, 1992, pages 3-11 to 2-3-44 and 4-17 to 4-18; Ruth, Chapter 6 In: Methods in Molecular Biology, Vol. 26: Protocols for Oligonucleotide Conjugates, Agrawal, ed., Humana Press Inc., Totowa, N.J., 1994, pages 167-185; and Chapter 10 In: Molecular Cloning: A Laboratory Manual, 2nd Ed., Sambrook et al., Eds., pages 10.1-10.70). The blots were stripped and reprobed with a ^32P-labeled glyceraldehyde 3-phosphate dehydrogenase (G3PDH) probe (Clontech Laboratories, Inc., Palo Alto, Calif.) in order to confirm equal loading of RNA and to allow the levels of JNK transcripts to be normalized with regard to the G3PDH signals.
B. JNK3-specific probes: In initial screenings of a set of oligonucleotides derived from the JNK3 sequence for biological activity, a cDNA clone of JNK3 (Derijard et al., Cell, […], 76, 1025) was radiolabeled and used as a JNK3-specific probe in Northern blots. Alternatively, however, one or more of the oligonucleotides of Table 14 is detectably labeled and used as a JNK3-specific probe.
E. Activities of JNK3 oligonucleotides: The JNK3-specific phosphorothioate, 2′-methoxyethoxy “gapmer” oligonucleotides (Table 14) were screened for their ability to affect JNK3 mRNA levels in SH-SY5Y cells (Biedler et al., Cancer Res., 1973, 33, 2643). SH-SY5Y cells express a variety of mitogen-activated protein kinases (MAPKs; see, e.g., Cheng et al., J. Biol. Chem., 1998, 273, 14560). Cells were grown in DMEM essentially as previously described (e.g., Singleton et al., J. Biol. Chem., 1996, 271, 31791; Jalava et al., Cancer Res., 1990, 50, 3422) and treated with oligonucleotides at a concentration of 200 nM as described in Example 2. Control cultures were treated with an aliquot of LIPOFECTIN™ that contained no oligonucleotide.

Substance | % EXPRESSION | % INHIBITION
16690 (antisense TTCAACAGTTTCTTGCATAA; sugars from the 5' end e6 d8 e6, all phosphorothioate, methylation of C not given here) [compound 16690] | 60% | 40%
16691 (antisense CTCATCTATAGGAAACGGGT; sugars from the 5' end e6 d8 e6, all phosphorothioate, methylation of C not given here) [compound 16691] | 66% | 34%
16692 (antisense TGGAGGCTCATAAATACCAC; sugars from the 5' end e6 d8 e6, all phosphorothioate, methylation of C not given here) [compound 16692] | 47% | –
16693 (antisense TATAAGAAATGGAGGCTCAT; sugars from the 5' end e6 d8 e6, all phosphorothioate, methylation of C not given here) [compound 16693] | 40% | –
16694 (antisense TCACATCCAATGTTGGTTCA; sugars from the 5' end e6 d8 e6, all phosphorothioate, methylation of C not given here) [compound 16694] | 42% | –
16695 (antisense TTATCGAATCCCTGACAAAA; sugars from the 5' end e6 d8 e6, all phosphorothioate, methylation of C not given here) [compound 16695] | 44% | –
16696 (antisense GTTTGGCAATATATGACACA; sugars from the 5' end e6 d8 e6, all phosphorothioate, methylation of C not given here) [compound 16696] | 55% | –
16697 (antisense CTGTCAAGGACAGCATCATA; sugars from the 5' end e6 d8 e6, all phosphorothioate, methylation of C not given here) [compound 16697] | 54% | –
16698 (antisense AATCACTTGACATAAGTTGG; sugars from the 5' end e6 d8 e6, all phosphorothioate, methylation of C not given here) [compound 16698] | 63% | 37%
16699 (antisense TAAATCCCTGTGAATAATTC; sugars from the 5' end e6 d8 e6, all phosphorothioate, methylation of C not given here) [compound 16699] | 61% | 39%
16702 (antisense TGTTCTCTTTCATCCAACTG; sugars from the 5' end e6 d8 e6, all phosphorothioate, methylation of C not given here) [compound 16702] | 39% | –
16703 (antisense TCTCACTGCTGTTCACTGCT; sugars from the 5' end e6 d8 e6, all phosphorothioate, methylation of C not given here) [compound 16703] | 30% | –
16704 (antisense GGGTCTGGTCGGTGGACATG; sugars from the 5' end e6 d8 e6, all phosphorothioate, methylation of C not given here) [compound 16704] | 36% | –
16705 (antisense AGGCTGCTGTCAGTGTCAGA; sugars from the 5' end e6 d8 e6, all phosphorothioate, methylation of C not given here) [compound 16705] | 42% | –
16706 (antisense TCACCTGCAACAACCCAGGG; sugars from the 5' end e6 d8 e6, all phosphorothioate, methylation of C not given here) [compound 16706] | 45% | –
16707 (antisense GCGGCTAGTCACCTGCAACA; sugars from the 5' end e6 d8 e6, all phosphorothioate, methylation of C not given here) [compound 16707] | 73% | 27%
16708 (antisense CGCTGGGTTTCGCAGGCAGG; sugars from the 5' end e6 d8 e6, all phosphorothioate, methylation of C not given here) [compound 16708] | 68% | 32%
16709 (antisense ATCATCTCCTGAAGAACGCT; sugars from the 5' end e6 d8 e6, all phosphorothioate, methylation of C not given here) [compound 16709] | 66% | 34%
